# Measurements published in patent US20160067211A1, “PHARMACEUTICAL COMPOSITION” (Eberhard Karls Universitaet Tuebingen Medizinische Fakultaet, priority 2013, published 2016).
# Tests used:
# [1] = test system: cleaved caspase-3 in SK-MEL-28 melanoma cells; assay: Western blot for cleaved caspase-3; type: cell-based, human; details: SK-MEL-28, 100 μM
# Protocol: Western blot analysis of SK-MEL-28 melanoma cells treated with 100 μM of 6-PN, 8-PN, SAHA or TSA. EtOH and DMSO were applied as controls.
# (§1) The following antibodies were used: Anti-Vinculin and Anti-Actin (1:5000, Sigma-Aldrich), Anti-Acetyl-Histon H3 (1:5000, Millipore, Billerica, USA), Anti-Caspase-3 (1:1000), Anti-AKT, Anti-pAKT, Anti-ERK, Anti-pERK, […], Anti-p70S6 Kinase, and Anti-pS6 protein (1:1000), all from Cell Signaling, Frankfurt, Germany), Anti-LC3 (1:5000, Sigma-Aldrich).
# To further analyze the type of cell death induced by 6-PN and 8-PN, western blot analyses of SK-MEL-28 melanoma cells were performed 1, 2, 4, 12 and 24 hours after the treatment with 100 μM 6-PN and 8-PN. […] Upon PN treatment an inconsistent expression of oncogenic AKT and phospho-AKT (pAKT) was detected. […] Thus, there was an obvious discrepancy between the expression of pAKT and pS6P. Therefore it was first also looked for the expression of P70S6 kinase and its phosphorylated form. […] Therefore it was next asked whether the S6P could be phosphorylated by a different mechanism. In this respect, activated ERK can phosphorylate the p90 ribosomal S6 kinase (pP90). pP90 also phosphorylates the S6P (in addition to the P70S6 kinase). Since the pP70S6 kinase was absent in the used cells (SK-MEL-28 and BLM), it was hypothesized that the phosphorylation of the S6P was conducted via the pERK/pP90 pathway, independent from the P70S6 signalling. This hypothesis was supported by the parallel down-regulation of the bands for pP90 (Thr359/Ser363) and pS6P 12 hours after the treatment with 6-PN, and the reappearance of both bands after 24 hours (FIG. 8). […] The western blot experiments were repeated with BLM cells under the same treatment conditions and yielded similar results (not shown).
# SK-MEL-28 melanoma cells [2] = assay: PI/Annexin V staining FACS, SK-MEL-28; type: cell-based, human; details: SK-MEL-28, 100 μM; for annexin V positive (apoptotic) cells: DMSO control 2.5%; for PI positive (nectrotic) cells: DMSO control 7.9%
# Protocol: (§2) (A) Cell cycle FACS analyses of PI stained BLM and SK-MEL-28 melanoma cells. 100 μM of 8-PN-induced a G2 arrest in both cells. (B) FACS analyses of BLM and SK-MEL-28 melanoma cells treated with 100 μM 6-PN or 8-PN and stained for annexin V/PI; staurosporin was used as control for apoptosis induction and DMSO as vehicle control. […] (C) BLM and SK-MEL-28 melanoma cells were treated with 100 μM of PNs; TSA, SAHA and EMSO were used as controls.
# (§3) To further analyze the possibility of apoptosis induction, an extensive apoptosis assay was performed on SK-MEL-28 melanoma cells 4 hours after treatment with 100 μM 6-PN or 8-PN (FIG. 9). […] This was verified by FACS cell cycle analyses to screen for a possible increase of the sub-G1 fraction of cells (apoptotic cells) or for the induction of a G2 arrest (inhibition of proliferation). […] To further differentiate between the induction of apoptosis and/or necrosis an PI/Annexin V staining of SK-MEL-28 and BLM cells was performed 4 hours and 24 hours after the treatment with 6-PN or 8-PN; 10 μM staurosporin (6 hours treatment) was used as positive control for the induction of apoptosis; DMSO treatment was used as vehicle control. The cells were then analyzed by FACS.
# [3] = test system: PI (3) K/Akt-signal path in MCF-7 cells; details: MCF-7 cells in vitro; cited from earlier work
# [4] = test system: LC3 in SK-MEL-28 melanoma cells; assay: Western blot LC3 (autophagy), SK-MEL-28; type: cell-based, human; details: SK-MEL-28, 100 μM, after 12-24 hours
# Protocol: as §2, §1
# Since it has been speculated that the formation of intracytoplasmic vacuoles in pancreatic or breast cancer cells by 6-PN and 8-PN observed in pervious studies might represent an induction of autophagy, this issue was further investigated on a molecular level. BLM and SK-MEL-28 melanoma cells were treated with 100 μM of 6-PN, 8-PN, SAHA or TSA (and with DMSO as control), and the treated cells were lysed for protein extraction after 1 hour, 2 hours, 4 hours, 12 hours and 24 hours. […]
# SK-MEL-28 melanoma cells [5] = assay: Apoptosis antibody array (35 proteins); type: cell-based, human; details: SK-MEL-28, 100 μM, 4 hours
# Protocol: Apoptosis assay (35 proteins) performed on lysates of SK-MEL-28 melanoma cells 4 hours after treatment with 100 μM of 6-PN or 8-PN. Protein expression levels were estimated performing a densitometric analysis. Neither 6-PN nor 8-PN yielded a significant change of expression of the analyzed proteins involved in apoptosis.
# Testing of apoptosis induction was performed with the human Proteom-Profiler-Apoptosis-Antibody-Array-Kit (R & D Systems, Wiesbaden, Germany) as described by the manufacturer after treatment of SK-MEL-28 melanoma cells with 100 μM 6-PN or 100 μM 8-PN for 4 hours.
# as §3
# P-glycoprotein = P-glycoprotein (Homo sapiens, UniProt P08183); details: cited from earlier work
# P-glycoprotein, sequence (P08183 whole entry): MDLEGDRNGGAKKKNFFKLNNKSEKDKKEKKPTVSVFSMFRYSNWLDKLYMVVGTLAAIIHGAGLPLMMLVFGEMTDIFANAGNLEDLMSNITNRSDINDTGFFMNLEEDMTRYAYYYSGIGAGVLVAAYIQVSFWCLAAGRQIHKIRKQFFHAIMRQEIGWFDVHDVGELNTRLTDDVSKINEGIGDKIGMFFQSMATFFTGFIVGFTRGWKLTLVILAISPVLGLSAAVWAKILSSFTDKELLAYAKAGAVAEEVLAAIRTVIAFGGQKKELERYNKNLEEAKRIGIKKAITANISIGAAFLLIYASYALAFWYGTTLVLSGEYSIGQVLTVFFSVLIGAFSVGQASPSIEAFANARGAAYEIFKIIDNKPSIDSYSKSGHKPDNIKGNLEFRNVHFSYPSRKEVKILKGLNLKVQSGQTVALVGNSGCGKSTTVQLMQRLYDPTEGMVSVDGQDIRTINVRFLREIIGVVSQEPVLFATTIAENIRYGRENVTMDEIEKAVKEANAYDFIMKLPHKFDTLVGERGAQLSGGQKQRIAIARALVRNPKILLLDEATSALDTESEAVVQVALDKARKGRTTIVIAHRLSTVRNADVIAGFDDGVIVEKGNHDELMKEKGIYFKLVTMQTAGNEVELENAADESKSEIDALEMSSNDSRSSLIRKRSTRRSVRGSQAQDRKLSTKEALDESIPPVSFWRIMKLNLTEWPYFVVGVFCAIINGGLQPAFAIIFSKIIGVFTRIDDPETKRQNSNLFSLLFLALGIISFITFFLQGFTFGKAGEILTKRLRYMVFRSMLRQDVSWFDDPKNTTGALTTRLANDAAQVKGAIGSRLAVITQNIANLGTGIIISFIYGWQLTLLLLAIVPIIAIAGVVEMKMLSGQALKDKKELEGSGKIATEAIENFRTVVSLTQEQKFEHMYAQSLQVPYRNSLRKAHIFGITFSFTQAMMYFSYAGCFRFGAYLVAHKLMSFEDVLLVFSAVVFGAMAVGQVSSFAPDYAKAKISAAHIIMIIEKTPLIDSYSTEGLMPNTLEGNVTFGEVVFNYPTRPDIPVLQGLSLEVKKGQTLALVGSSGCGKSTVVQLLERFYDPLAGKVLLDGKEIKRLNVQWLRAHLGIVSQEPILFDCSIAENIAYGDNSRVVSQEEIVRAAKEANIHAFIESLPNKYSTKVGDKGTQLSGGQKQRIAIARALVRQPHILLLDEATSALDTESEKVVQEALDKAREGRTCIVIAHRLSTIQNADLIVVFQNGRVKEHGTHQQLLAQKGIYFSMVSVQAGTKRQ
compound,measurement,setting,value
"CC(C)=CCc1c(O)cc(O)c2c1OC(c1ccc(O)cc1)CC2=O (stereo not drawn) [8-PN, 5,7-Dihydroxy-2-(4-hydroxy-phenyl)-8-(3-methyl-but-2-enyl)-chroman-4-one]",band for cleaved caspase-3,[1],no additional band
same,annexin V positive (apoptotic) cells,SK-MEL-28 melanoma cells [2]; 4 hours,0.2%
same,PI positive (nectrotic) cells,SK-MEL-28 melanoma cells [2]; 4 hours,29.9%
same,annexin V positive (apoptotic) cells,SK-MEL-28 melanoma cells [2]; 24 hours,0.5%
same,PI positive (nectrotic) cells,SK-MEL-28 melanoma cells [2]; 24 hours,58.2%
same,activation of the PI (3) K/Akt-signal path,[3],directly inhibits
same,shift from LC3-I to LC3-II (autophagy),[4],clearly induced the shift
same,"apoptosis induction (expression of 35 apoptosis proteins, densitometric)",SK-MEL-28 melanoma cells [5],not apoptosis related
same,inhibition of the P-glycoprotein,P-glycoprotein,inhibition
